Values joined by “and” are separate entries in the source; they are usually repeats but may differ in a detail not shown here. Equal values may be shown once.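 In this assay, cells in 96-well plates receive the compound at five concentrations for 48 hours. Endpoints are linearly interpolated between the surrounding concentrations. GI50 is the concentration that inhibits growth by half. The concentration for full growth arrest is given as TGI.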

From PubChem BioAssay (NCI) come the findings set out here.

Test systems include 786-0 renal; COLO 205 colon; HCT-15 colon; HT29 colon; MALME-3M melanoma; NCI-H23 lung; U251 CNS; UACC-257 melanoma; A498 renal; RXF 393 renal.
Assay in all cases: growth of human tumour cells (NCI), 48 h

For `CC(=O)Nc1ccc(C(=O)N2N=C(C)/C(=C/c3ccc(O)cc3)C2=O)cc1`, the TGI in the assay on 786-0 renal, in the assay on COLO 205 colon, in the assay with HCT-15 colon, in the assay with HT29 colon, in the assay on MALME-3M melanoma and with NCI-H23 lung was greater than 100 µM throughout. In addition, the TGI with U251 CNS and in the assay on UACC-257 melanoma was greater than 100 µM throughout.
With `OC12CCCCCC1(N1CCOCC1)c1ccccc12` (stereo not given), the TGI in the assay on 786-0 renal, in the assay on A498 renal, in the assay on COLO 205 colon, with HCT-15 colon, with HT29 colon and in the assay with MALME-3M melanoma was greater than 100 µM each time. Further, the TGI in the assay on NCI-H23 lung, in the assay with RXF 393 renal, in the assay with U251 CNS and in the assay with UACC-257 melanoma was greater than 100 µM throughout.
For `Nc1c(N=Nc2ccc(-c3ccc(N=Nc4c(O)ccc5cc(S(=O)(=O)O)cc(S(=O)(=O)O)c45)cc3)cc2)c(S(=O)(=O)O)cc2cc(S(=O)(=O)O)c(N=Nc3ccccc3)c(O)c12`, the TGI in the assay on A498 renal, in the assay on COLO 205 colon, with HCT-15 colon, in the assay with HT29 colon, in the assay on MALME-3M melanoma and in the assay on NCI-H23 lung was greater than 100 µM throughout. The TGI with RXF 393 renal, in the assay on U251 CNS and in the assay on UACC-257 melanoma was greater than 100 µM throughout.
With `Cc1cc2occ(-c3ccc(Cl)cc3)c2c(=O)o1`, the TGI with 786-0 renal, in the assay with A498 renal, in the assay with COLO 205 colon, in the assay on HCT-15 colon, in the assay with HT29 colon and in the assay with MALME-3M melanoma was greater than 100 µM in each case. The TGI in the assay on NCI-H23 lung, with RXF 393 renal, in the assay on U251 CNS and in the assay with UACC-257 melanoma was greater than 100 µM throughout.
As for `Nc1ncc(/C=N/O)c(NCC2(CO)CC(CCc3ccccc3)C2)n1` (stereo not given), the TGI in the assay on 786-0 renal was found to be 37.2 µM; in the assay on A498 renal, 29.1 µM; in the assay with COLO 205 colon, 27.2 µM; in the assay with HCT-15 colon, 29.9 µM; in the assay on HT29 colon, 9.07 µM; with MALME-3M melanoma it was 25.3 µM. Further, the values for the TGI in the assay with RXF 393 renal, with U251 CNS and with UACC-257 melanoma were 29 µM, 26.4 µM and 24.4 µM, respectively.
`COc1cc(-n2cc(-c3cc(O)c(C/C=C(\C)CCC=C(C)C)c(O)c3)nn2)cc2c1O[C@]1(C)CC[C@@H](O)C(C)(C)[C@H]1C2`: the GI50 was 0.298 µM in the assay with A498 renal; 3.76 µM with COLO 205 colon; 1.08 µM with HCT-15 colon; 1.71 µM with HT29 colon; 1.38 µM in the assay with MALME-3M melanoma; 3.26 µM in the assay on NCI-H23 lung. Also, the values for the GI50 in the assay with RXF 393 renal, in the assay on U251 CNS and in the assay with UACC-257 melanoma were 0.0214 µM, 0.0959 µM and 5.09 µM, respectively. The TGI was 32.8 µM in the assay on A498 renal; 22.2 µM in the assay with COLO 205 colon; 9.7 µM in the assay with HCT-15 colon; 5.81 µM with HT29 colon; 8.4 µM in the assay with MALME-3M melanoma; 31.3 µM in the assay on NCI-H23 lung. Also, the TGI with RXF 393 renal came out at 0.337 µM; in the assay on U251 CNS it was 10.9 µM; in the assay on UACC-257 melanoma it was 48.4 µM.
As for `Cc1cc(=O)[nH]c(NNC(C#N)c2ccc([N+](=O)[O-])cc2)n1` (stereo not given), the TGI in the assay on 786-0 renal, in the assay on COLO 205 colon, in the assay with HCT-15 colon, in the assay on HT29 colon, in the assay on MALME-3M melanoma and in the assay on NCI-H23 lung was greater than 100 µM throughout. Further, the TGI in the assay on RXF 393 renal, in the assay on U251 CNS and in the assay with UACC-257 melanoma was greater than 100 µM throughout.
Take `COc1ccc(/C=C2\CCC(CNc3ccc(Br)cc3)C2=O)cc1` (stereo not given): the TGI in the assay on 786-0 renal, in the assay on A498 renal, in the assay with COLO 205 colon, with HCT-15 colon, in the assay on HT29 colon and with MALME-3M melanoma was greater than 100 µM in each case. The TGI in the assay with NCI-H23 lung, in the assay with RXF 393 renal, with U251 CNS and in the assay with UACC-257 melanoma was greater than 100 µM throughout.
Consider `CC(C)(C)CC(C)(C)c1ccc(OCCOCC[N+](C)(C)Cc2ccccc2)cc1`, for which the TGI with 786-0 renal is 24.4 µM; with COLO 205 colon, 2.91 µM; in the assay on HCT-15 colon, 63.6 µM and 51.3 µM; with HT29 colon, 2.49 µM and 3.3 µM; in the assay with MALME-3M melanoma it was 3.64 µM; in the assay with NCI-H23 lung, 6.01 µM. In addition, the TGI was determined as 10.3 µM in the assay on RXF 393 renal, 4.44 µM in the assay with U251 CNS and 3.03 µM in the assay on UACC-257 melanoma. In addition, the GI50 in the assay with A498 renal was 1.54 µM; with HCT-15 colon it was 16.6 µM; in the assay with HT29 colon, 1.14 µM.
With `COc1ccc(-c2c3ccccc3c(-c3ccc(OCCCCCBr)cc3)c3ccccc23)cc1`, the TGI with COLO 205 colon, in the assay on HCT-15 colon, in the assay on HT29 colon and in the assay with MALME-3M melanoma was greater than 100 µM in each case.
As for `COC(=O)n1c(C[P+](c2ccccc2)(c2ccccc2)c2ccccc2)cc2ccccc21`, the TGI in the assay with 786-0 renal was 12.8 µM; in the assay with A498 renal, 22.7 µM; with COLO 205 colon, 2.92 µM; in the assay with HCT-15 colon, 34.2 µM; with HT29 colon, 11.8 µM; in the assay on MALME-3M melanoma it was 17.1 µM. In addition, the TGI with NCI-H23 lung is 7.77 µM; in the assay with RXF 393 renal, 14.4 µM; in the assay on U251 CNS it was 17.5 µM.
Take `CCOc1ccc(-c2oc(/C=N/NS(=O)(=O)c3ccc(C)cc3)c([N+](=O)[O-])c2-c2ccc(OCC)cc2)cc1`: the TGI was determined as 29.7 µM in the assay on 786-0 renal; 41.4 µM in the assay on A498 renal; 37.2 µM with COLO 205 colon; 18.4 µM in the assay with HCT-15 colon; 20.7 µM with HT29 colon; 37.1 µM in the assay on MALME-3M melanoma. Moreover, the TGI in the assay with NCI-H23 lung stood at 31.4 µM; in the assay on RXF 393 renal, 29.3 µM; in the assay on U251 CNS, 21.2 µM; in the assay on UACC-257 melanoma, 45 µM.
As to `Oc1[nH]c2ccccc2c1/C=c1/cc2c(c(-c3ccc(C(F)(F)F)cc3)n1)=Nc1ccccc1-2`, the GI50 in the assay on A498 renal was 5.2 µM; in the assay on COLO 205 colon it was 1.95 µM; in the assay with HCT-15 colon it was 3.59 µM; with HT29 colon, 3.16 µM; with MALME-3M melanoma, 9.14 µM; in the assay with NCI-H23 lung it was 10.9 µM. For the same compound, the GI50 in the assay on RXF 393 renal is 3.08 µM; with U251 CNS it was 4.46 µM; in the assay on UACC-257 melanoma, 13.6 µM. Also, the TGI with A498 renal worked out at 38.6 µM; in the assay with COLO 205 colon, 5.13 µM; in the assay with HCT-15 colon it was 15.8 µM; in the assay with HT29 colon, 11.4 µM; in the assay with MALME-3M melanoma, 27.4 µM; in the assay on NCI-H23 lung, 31.8 µM. In addition, the values for the TGI in the assay with RXF 393 renal, with U251 CNS and with UACC-257 melanoma were 15.3 µM, 18.3 µM and 42.3 µM, respectively.
Turning to `O=CNNC(=O)Nc1ccc(Cl)cc1`, the TGI with 786-0 renal is greater than 100 µM; in the assay with A498 renal, 97.6 µM; in the assay on COLO 205 colon it was greater than 100 µM; with HCT-15 colon, greater than 100 µM; with HT29 colon it was greater than 100 µM; in the assay on MALME-3M melanoma it was greater than 100 µM. For the same compound, the TGI in the assay on NCI-H23 lung, in the assay with RXF 393 renal, in the assay on U251 CNS and with UACC-257 melanoma was greater than 100 µM throughout.
For the compound `CCN(CC)CCCCC1CCN(CC(=O)N2c3ccccc3NC(=O)CC2C)CC1` (stereo not given), the TGI in the assay with 786-0 renal, in the assay with A498 renal, with COLO 205 colon, in the assay on HCT-15 colon, in the assay on HT29 colon and in the assay with MALME-3M melanoma was greater than 100 µM each time. Also, the TGI with NCI-H23 lung, with RXF 393 renal, with U251 CNS and in the assay with UACC-257 melanoma was greater than 100 µM throughout.
With `CC(=O)NC1=C(NCC(C)C)C(=O)c2ccccc2C1=O`, the TGI in the assay on 786-0 renal was 31.9 µM; in the assay with A498 renal it was greater than 100 µM; in the assay on COLO 205 colon, greater than 100 µM; in the assay on HCT-15 colon, 33.7 µM; with HT29 colon, greater than 100 µM; with MALME-3M melanoma it was 34.2 µM. Also, the TGI with NCI-H23 lung is 59.7 µM; in the assay on RXF 393 renal it was 25.4 µM; with U251 CNS, greater than 100 µM; in the assay on UACC-257 melanoma, 36.4 µM.
For `CCCCCCOc1ccc(C(=N)N(CCCC)CCCC)c2ccccc12`, the GI50 was 1.19 µM in the assay on A498 renal; 1.45 µM in the assay on NCI-H23 lung; 1.28 µM in the assay on RXF 393 renal; 1.5 µM in the assay with U251 CNS; 1.6 µM in the assay with UACC-257 melanoma. In addition, the TGI with A498 renal stood at 2.45 µM; in the assay on NCI-H23 lung it was 2.8 µM; with RXF 393 renal, 2.74 µM; with U251 CNS, 2.97 µM; in the assay with UACC-257 melanoma, 3.06 µM.
For the compound `O=c1c2c(nc3n1CCC3)sc1c(O)c(Br)ccc12`, the TGI in the assay with 786-0 renal amounted to 37.4 µM; with A498 renal, 24.5 µM; in the assay with COLO 205 colon, 24.4 µM; with HCT-15 colon, 45.7 µM; with HT29 colon, 33.1 µM; in the assay with MALME-3M melanoma it was 34.4 µM. Further, the TGI with NCI-H23 lung was 92.7 µM; in the assay on RXF 393 renal, greater than 100 µM; in the assay with U251 CNS, 57.3 µM; in the assay with UACC-257 melanoma, 30.7 µM.
Take `C/C(=C\Cc1cc(O)ccc1O)CCc1c(C)cc(O)c(C=O)c1C`: the TGI is 62.6 µM with 786-0 renal; greater than 100 µM in the assay on A498 renal; 33.4 µM with COLO 205 colon; 84.5 µM in the assay on HCT-15 colon; 48.6 µM in the assay with HT29 colon; 53.8 µM with MALME-3M melanoma. Besides, the results for the TGI in the assay with NCI-H23 lung, in the assay with RXF 393 renal and in the assay with U251 CNS were 70.8 µM, 37.1 µM and 67.6 µM, respectively.
